Broadly, the IC50 is the concentration at which inhibition is half-maximal. The low end stands for higher potency, the high end for lower potency.

Results on 32 compounds are retold here after US20210317134A1, “UBIQUITIN-SPECIFIC-PROCESSING PROTEASE 7 (USP7) MODULATORS AND USES THEREOF” (RAPT THERAPEUTICS, INC., priority 2019, published 2021).

The structures appear in SMILES notation. A value given as a limit tells only on which side of the number the result lay.

This test has as its target USP7 (Homo sapiens, UniProt Q93009). The test can be described thus: USP7 inhibitory potency (Table 1). The test is classed as biochemical.

Sequence of USP7 (Q93009 whole entry): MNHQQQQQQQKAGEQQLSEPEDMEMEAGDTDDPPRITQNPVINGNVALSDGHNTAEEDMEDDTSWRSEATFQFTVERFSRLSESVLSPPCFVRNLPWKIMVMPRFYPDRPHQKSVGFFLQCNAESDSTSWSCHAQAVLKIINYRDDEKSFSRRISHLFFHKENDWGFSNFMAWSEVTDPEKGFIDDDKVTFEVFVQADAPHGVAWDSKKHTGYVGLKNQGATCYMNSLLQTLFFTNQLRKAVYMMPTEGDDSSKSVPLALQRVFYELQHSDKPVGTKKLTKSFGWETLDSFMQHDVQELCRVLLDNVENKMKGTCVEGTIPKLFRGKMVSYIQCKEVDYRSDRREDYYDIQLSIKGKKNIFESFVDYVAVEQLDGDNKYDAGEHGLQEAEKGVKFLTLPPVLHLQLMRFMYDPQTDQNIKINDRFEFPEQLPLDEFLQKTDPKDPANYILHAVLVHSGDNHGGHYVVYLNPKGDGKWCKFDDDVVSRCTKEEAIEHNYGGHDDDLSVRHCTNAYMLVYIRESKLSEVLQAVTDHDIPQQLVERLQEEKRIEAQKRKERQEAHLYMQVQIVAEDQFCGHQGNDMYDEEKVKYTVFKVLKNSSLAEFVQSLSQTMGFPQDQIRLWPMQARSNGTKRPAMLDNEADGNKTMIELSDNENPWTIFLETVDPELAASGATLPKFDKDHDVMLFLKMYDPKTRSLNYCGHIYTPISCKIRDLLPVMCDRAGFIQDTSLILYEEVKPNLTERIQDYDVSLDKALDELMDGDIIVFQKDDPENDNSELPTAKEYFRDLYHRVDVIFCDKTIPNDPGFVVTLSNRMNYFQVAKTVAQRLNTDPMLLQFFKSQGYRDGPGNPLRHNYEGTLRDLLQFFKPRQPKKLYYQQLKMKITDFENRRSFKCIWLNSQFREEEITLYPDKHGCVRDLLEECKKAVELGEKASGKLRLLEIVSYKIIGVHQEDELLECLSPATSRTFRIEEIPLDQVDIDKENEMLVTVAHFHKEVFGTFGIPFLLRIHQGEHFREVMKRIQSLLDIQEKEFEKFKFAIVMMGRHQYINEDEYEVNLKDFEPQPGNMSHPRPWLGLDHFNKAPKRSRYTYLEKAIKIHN

Turning to `O=C(C1Cc2cc(Cl)cc(-c3ccnc4[nH]ccc34)c2O1)N1CCN[C@H](CO)C1` (stereo partly drawn) [(5-chloro-7-(1H-pyrrolo[2,3-b]pyridin-4-yl)-2,3-dihydrobenzofuran-2-yl)((S)-3-(hydroxymethyl)piperazin-1-yl)methanone], the IC50 fell in the range of 1000 to 10000 nM. The compound `CCC(O)c1cc2nccc(-c3cc(Cl)cc4c3O[C@@H](c3ocnc3CN3CCCC3)C4)c2s1` (stereo partly drawn) [1-(7-((R)-5-chloro-2-(4-(pyrrolidin-1-ylmethyl)oxazol-5-yl)-2,3-dihydrobenzofuran-7-yl)thieno[3,2-b]pyridin-2-yl)propan-1-ol] registered an IC50 below 1000 nM.

`C[C@@H]1CNCCN1C(=O)C1Cc2cc(Cl)cc(-c3ccnc4[nH]ccc34)c2O1` (stereo partly drawn) [(5-chloro-7-(1H-pyrrolo[2,3-b]pyridin-4-yl)-2,3-dihydrobenzofuran-2-yl)((R)-2-methylpiperazin-1-yl)methanone] returned an IC50 of 10000 to 30000 nM. Under `O=C([C@H]1Cc2cc(Cl)cc(-c3ccnc4cc(CCNS(=O)(=O)c5ccccc5)sc34)c2O1)N1CCNCC1` [(R)-N-(2-(7-(5-chloro-2-(piperazine-1-carbonyl)-2,3-dihydrobenzofuran-7-yl)thieno[3,2-b]pyridin-2-yl)ethyl)benzenesulfonamide] stands below 1000 nM. With `O=C(NCc1ccccc1)c1cc2c(-c3cc(Cl)cc4c3OC(C(=O)N3CCNCC3)C4)ccnc2[nH]1` (centres unmarked) [N-benzyl-4-(5-chloro-2-(piperazine-1-carbonyl)-2,3-dihydrobenzofuran-7-yl)-1H-pyrrolo[2,3-b]pyridine-2-carboxamide] the figure was 1000 to 10000 nM. With `O=C(C1Cc2cc(Cl)cc(-c3ccnc4[nH]ccc34)c2O1)N1CCC(c2ccccc2O)CC1` (centres unmarked) [(5-chloro-7-(1H-pyrrolo[2,3-b]pyridin-4-yl)-2,3-dihydrobenzofuran-2-yl)(4-(2-hydroxyphenyl)piperidin-1-yl)methanone] the figure was 1000 to 10000 nM; with `Cc1cc(-c2cc(Cl)cc3c2O[C@@H](c2onc4c2CNCC4)C3)c2ccc(C#N)cc2n1` [(R)-4-(5-chloro-2-(4,5,6,7-tetrahydroisoxazolo[4,3-c]pyridin-3-yl)-2,3-dihydrobenzofuran-7-yl)-2-methylquinoline-7-carbonitrile], 10000 to 30000 nM; with `N#Cc1cc2nccc(-c3cc(Cl)cc4c3O[C@@H](C(=O)N3CCNCC3)C4)c2o1` [(R)-7-(5-chloro-2-(piperazine-1-carbonyl)-2,3-dihydrobenzofuran-7-yl)furo[3,2-b]pyridine-2-carbonitrile], 1000 to 10000 nM. Compound `CC[C@H](O)c1cc2nccc(-c3cc(Cl)cc4c3O[C@@](C)(c3onc5c3CNCC5)C4)c2s1` [(S)-1-(7-((R)-5-chloro-2-methyl-2-(4,5,6,7-tetrahydroisoxazolo[4,3-c]pyridin-3-yl)-2,3-dihydrobenzofuran-7-yl)thieno[3,2-b]pyridin-2-yl)propan-1-ol] gave an IC50 below 1000 nM. Compound `C[C@H](c1cc2nccc(-c3cc(Cl)cc4c3O[C@@H](C(=O)N3CCNCC3)C4)c2s1)N1C(=O)CCC1=O` [1-((R)-1-(7-((R)-5-chloro-2-(piperazine-1-carbonyl)-2,3-dihydrobenzofuran-7-yl)thieno[3,2-b]pyridin-2-yl)ethyl)pyrrolidine-2,5-dione] had an IC50 below 1000 nM. Under `CC(=O)NCCc1cc2nccc(-c3cc(Cl)cc4c3O[C@@H](C(=O)N3CCNCC3)C4)c2s1` [(R)-N-(2-(7-(5-chloro-2-(piperazine-1-carbonyl)-2,3-dihydrobenzofuran-7-yl)thieno[3,2-b]pyridin-2-yl)ethyl)acetamide] stands below 1000 nM; under `NS(=O)(=O)CCc1cc2nccc(-c3cc(Cl)cc4c3O[C@@H](C(=O)N3CCNCC3)C4)c2s1` [(R)-2-(7-(5-chloro-2-(piperazine-1-carbonyl)-2,3-dihydrobenzofuran-7-yl)thieno[3,2-b]pyridin-2-yl)ethane-1-sulfonamide], below 1000 nM. With `Cc1cc2ncnc(-c3cc(Cl)cc4c3O[C@@H](C(=O)N3CCNCC3)C4)c2s1` [(R)-(5-chloro-7-(6-methylthieno[3,2-d]pyrimidin-4-yl)-2,3-dihydrobenzofuran-2-yl)(piperazin-1-yl)methanone] the figure was below 1000 nM; with `CCc1cc2nccc(-c3cc(Cl)cc4c3O[C@@H](c3onc5c3CNCC5)C4)c2s1` [(R)-3-(5-chloro-7-(2-ethylthieno[3,2-b]pyridin-7-yl)-2,3-dihydrobenzofuran-2-yl)-4,5,6,7-tetrahydroisoxazolo[4,3-c]pyridine], below 1000 nM; with `C=CCC1(C(=O)N2CCNCC2)Cc2cc(Cl)cc(-c3ccnc4[nH]ccc34)c2O1` (centres unmarked) [(2-allyl-5-chloro-7-(1H-pyrrolo[2,3-b]pyridin-4-yl)-2,3-dihydrobenzofuran-2-yl)(piperazin-1-yl)methanone], 10000 to 30000 nM.

For `CN(C)Cc1ncoc1[C@H]1Cc2cc(Cl)cc(-c3ncnc4ccsc34)c2O1` [(R)-1-(5-(5-chloro-7-(thieno[3,2-d]pyrimidin-4-yl)-2,3-dihydrobenzofuran-2-yl)oxazol-4-yl)-N,N-dimethylmethanamine], the IC50 is 1000 to 10000 nM. As for `Cn1nc2c(c1[C@H]1Cc3cc(Cl)cc(-c4ncnc5cc(CO)oc45)c3O1)CNCC2` [(R)-(4-(5-chloro-2-(2-methyl-4,5,6,7-tetrahydro-2H-pyrazolo [4,3-c]pyridin-3-yl)-2,3-dihydrobenzofuran-7-yl)furo[3,2-d]pyrimidin-6-yl)methanol], the IC50 is below 1000 nM.

Take `O=C([C@H]1Cc2cc(Cl)cc(-c3ccnc4cc(Cn5cnccc5=O)sc34)c2O1)N1CCNCC1` [(R)-3-((7-(5-chloro-2-(piperazine-1-carbonyl)-2,3-dihydrobenzofuran-7-yl)thieno[3,2-b]pyridin-2-yl)methyl)pyrimidin-4(3H)-one]: the IC50 was below 1000 nM.

`CCC(NC(C)=O)c1cc2nccc(-c3cc(Cl)cc4c3O[C@@H](C(=O)N3CCNCC3)C4)c2s1` (stereo partly drawn) [N-(1-(7-((R)-5-chloro-2-(piperazine-1-carbonyl)-2,3-dihydrobenzofuran-7-yl)thieno[3,2-b]pyridin-2-yl)propyl)acetamide] gave a 50% inhibitory concentration (IC50) below 1000 nM.

As for `Fc1ccc2c(-c3cc(Cl)cc4c3O[C@@H](c3onc5c3CNCC5)C4)ccnc2c1` [(R)-3-(5-chloro-7-(7-fluoroquinolin-4-yl)-2,3-dihydrobenzofuran-2-yl)-4,5,6,7-tetrahydroisoxazolo[4,3-c]pyridine], the IC50 was below 1000 nM. Under `Clc1cc2c(c(-c3ncnc4c3CCC4)c1)O[C@@H](c1onc3c1CNCC3)C2` [(R)-3-(5-chloro-7-(6,7-dihydro-5H-cyclopenta[d]pyrimidin-4-yl)-2,3-dihydrobenzofuran-2-yl)-4,5,6,7-tetrahydroisoxazolo[4,3-c]pyridine] stands 10000 to 30000 nM.

In the case of `O=C([C@H]1Cc2cc(Cl)cc(-c3ccnc4cc(CN5C(=O)CSC5=O)sc34)c2O1)N1CCNCC1` [(R)-3-((7-(5-chloro-2-(piperazine-1-carbonyl)-2,3-dihydrobenzofuran-7-yl)thieno[3,2-b]pyridin-2-yl)methyl)thiazolidine-2,4-dione], the IC50 is below 1000 nM. With `O=C(C1Cc2cc(Cl)cc(-c3ccnc4cc(CO)ccc34)c2O1)N1CCNCC1` (centres unmarked) [(5-chloro-7-(7-(hydroxymethyl)quinolin-4-yl)-2,3-dihydrobenzofuran-2-yl)(piperazin-1-yl)methanone] the figure was 1000 to 10000 nM; with `Clc1cc2c(c(-c3ccnc4cc(-c5cc[nH]n5)sc34)c1)O[C@@H](c1onc3c1CNCC3)C2` [(R)-3-(7-(2-(1H-pyrazol-3-yl)thieno[3,2-b]pyridin-7-yl)-5-chloro-2,3-dihydrobenzofuran-2-yl)-4,5,6,7-tetrahydroisoxazolo[4,3-c]pyridine], below 1000 nM. With `O=C([C@H]1Cc2cc(Cl)cc(-c3ccnc4occc34)c2O1)N1CCNCC1` [(R)-(5-chloro-7-(furo[2,3-b]pyridin-4-yl)-2,3-dihydrobenzofuran-2-yl)(piperazin-1-yl)methanone] the figure was 1000 to 10000 nM. In turn, `CCC(O)c1cc2nccc(-c3cc(Cl)cc4c3O[C@@H](c3ocnc3CNCCO)C4)c2s1` (stereo partly drawn) [1-(7-((R)-5-chloro-2-(4-(((2-hydroxyethyl)amino)methyl)oxazol-5-yl)-2,3-dihydrobenzofuran-7-yl)thieno[3,2-b]pyridin-2-yl)propan-1-ol] yielded an IC50 below 1000 nM. The compound `N#Cc1cc2c(c(-c3ccnc4cc(CO)sc34)c1)OC(C(=O)N1CCNCC1)C2` (stereo in doubt) [(R)-7-(2-(hydroxymethyl)thieno[3,2-b]pyridin-7-yl)-2-(piperazine-1-carbonyl)-2,3-dihydrobenzofuran-5-carbonitrile] registered an IC50 of 1000 to 10000 nM. Under `CCC(N)c1cc2nccc(-c3cc(Cl)cc4c3O[C@@H](c3onc5c3CNCC5)C4)c2s1` (stereo partly drawn) [1-(7-((R)-5-chloro-2-(4,5,6,7-tetrahydroisoxazolo[4,3-c]pyridin-3-yl)-2,3-dihydrobenzofuran-7-yl)thieno[3,2-b]pyridin-2-yl)propan-1-amine] stands 1000 to 10000 nM. `OCC1(CO)Cc2nccc(-c3cc(Cl)cc4c3O[C@@H](c3onc5c3CNCC5)C4)c2C1` [(R)-(4-(5-chloro-2-(4,5,6,7-tetrahydroisoxazolo[4,3-c]pyridin-3-yl)-2,3-dihydrobenzofuran-7-yl)-6,7-dihydro-5H-cyclopenta[b]pyridine-6,6-diyl)dimethanol] registered an IC50 of 1000 to 10000 nM. With `CN1CC(=O)N(Cc2cc3nccc(-c4cc(Cl)cc5c4O[C@@H](C(=O)N4CCNCC4)C5)c3s2)C1=O` [(R)-3-((7-(5-chloro-2-(piperazine-1-carbonyl)-2,3-dihydrobenzofuran-7-yl)thieno[3,2-b]pyridin-2-yl)methyl)-1-methylimidazolidine-2,4-dione] the figure was below 1000 nM; with `O=C([C@H]1Cc2cc(Cl)cc(-c3ccnc4cc(CO)sc34)c2O1)N1CCn2c(nnc2C(F)(F)F)C1` [(R)-(5-chloro-7-(2-(hydroxymethyl)thieno[3,2-b]pyridin-7-yl)-2,3-dihydrobenzofuran-2-yl)(3-(trifluoromethyl)-5,6-dihydro-[1,2,4]triazolo[4,3-a]pyrazin-7(8H)-yl)methanone], 1000 to 10000 nM; with `CC(O)(CO)c1cc2nccc(-c3cc(Cl)cc4c3O[C@@H](C(=O)N3CCNCC3)C4)c2s1` (stereo partly drawn) [((2R)-5-chloro-7-(2-(1,2-dihydroxypropan-2-yl)thieno[3,2-b]pyridin-7-yl)-2,3-dihydrobenzofuran-2-yl)(piperazin-1-yl)methanone], below 1000 nM.
